In US12492229B2, “Antimicrobial peptides” (Donald Danforth Plant Science Center, priority 2019, dated 2025):

Assays:
Botrytis cinerea = format: cell-based; settings: Pichia pastoris-expressed peptide
Fusarium graminearum = format: cell-based; settings: Pichia pastoris-expressed peptide
Phytophthora capsici = format: cell-based; settings: Pichia pastoris-expressed peptide
Fusarium oxysporum = format: cell-based
Alternaria brassicicola = format: cell-based; settings: Pichia pastoris-expressed peptide
A. rhizogenes = assay: In vitro antibacterial activity; format: cell-based, Agrobacterium rhizogenes
A. tumefaciens = assay: In vitro antibacterial activity; format: cell-based

SbDef1: endogenous Sorghum bicolor defensin antifungal peptide, 49 amino acids, SEQ ID NO: 1; expressed in Pichia pastoris (VHVCTMRNKFFHGPCMSNKNCAASCIQHRIGGGGYCSSRRQICKCTLQC; Sorghum bicolor)
IC50 (Botrytis cinerea): 1500 to 2000 nM
MLC (minimal lethal concentration) (Botrytis cinerea): 3 µM
IC50 (Fusarium graminearum): 2000 to 3000 nM
MLC (minimal lethal concentration) (Fusarium graminearum): 6 µM
IC50 (Phytophthora capsici): 2000 to 3000 nM
MLC (minimal lethal concentration) (Phytophthora capsici): 6 µM
IC50 (Fusarium oxysporum): 200 to 500 nM
MLC (minimal lethal concentration) (Fusarium oxysporum): 0.75 µM
IC50 (Alternaria brassicicola): 1500 to 2000 nM
MLC (minimal lethal concentration) (Alternaria brassicicola): 6 µM
antibacterial activity (A. rhizogenes): does not exhibit any antibacterial activity
antibacterial activity (A. tumefaciens): does not exhibit any antibacterial activity
